Data as given in the supplement of paper PMC10307832.

How the values were obtained:
Test in all cases: relative viability (nuclei count vs DMSO), 5 days (fraction); higher = more cells survive
RAF265 + Bortezomib = compound: Cn1c(Nc2ccc(C(F)(F)F)cc2)nc2cc(Oc3ccnc(-c4ncc(C(F)(F)F)[nH]4)c3)ccc21 [RAF265] + CC(C)C[C@H](NC(=O)[C@H](Cc1ccccc1)NC(=O)c1cnccn1)B(O)O [Bortezomib] (partner 0.002 µM)
How it was run: (§1)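 Lung cancer cell lines were seeded in 1536-well plates and dosed by pin tool the next day, with either a single drug or a fixed anchor-drug dose combined with five library-drug doses (not always all listed) spaced in √10 steps. Five days later, one step fixed the cells and stained their nuclei (final 0.05% Triton X-100, 1% formaldehyde, 1 ug/ml Hoechst), and nuclei were counted on 4× images. Relative viability is the nuclei count in treated wells divided by the count in vehicle wells, and each value is the median of duplicate plates.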

RAF265 + Tozasertib = compound: Cn1c(Nc2ccc(C(F)(F)F)cc2)nc2cc(Oc3ccnc(-c4ncc(C(F)(F)F)[nH]4)c3)ccc21 [RAF265] + Cc1cc(Nc2cc(N3CCN(C)CC3)nc(Sc3ccc(NC(=O)C4CC4)cc3)n2)n[nH]1 [Tozasertib] (partner 0.1 µM)
How it was run: as §1

RAF265 + Lapatinib = compound: Cn1c(Nc2ccc(C(F)(F)F)cc2)nc2cc(Oc3ccnc(-c4ncc(C(F)(F)F)[nH]4)c3)ccc21 [RAF265] + CS(=O)(=O)CCNCc1ccc(-c2ccc3ncnc(Nc4ccc(OCc5cccc(F)c5)c(Cl)c4)c3c2)o1 [Lapatinib] (partner 2 µM)
How it was run: as §1

Doramapimod + Pemetrexed = compound: Cc1ccc(-n2nc(C(C)(C)C)cc2NC(=O)Nc2ccc(OCCN3CCOCC3)c3ccccc23)cc1 [Doramapimod] + Nc1nc2[nH]cc(CCc3ccc(C(=O)N[C@@H](CCC(=O)O)C(=O)O)cc3)c2c(=O)[nH]1 [Pemetrexed] (partner 0.2 µM)
How it was run: as §1

| Cell Line | relative viability (RAF265 + Bortezomib; first compound 0.01 µM) | relative viability (RAF265 + Bortezomib; first compound 0.03162 µM) | relative viability (RAF265 + Bortezomib; first compound 0.1 µM) | relative viability (RAF265 + Bortezomib; first compound 0.3162 µM) | relative viability (RAF265 + Bortezomib; first compound 1 µM) | relative viability (RAF265 + Tozasertib; first compound 0.01 µM) | relative viability (RAF265 + Tozasertib; first compound 0.03162 µM) | relative viability (RAF265 + Tozasertib; first compound 0.1 µM) | relative viability (RAF265 + Tozasertib; first compound 0.3162 µM) | relative viability (RAF265 + Tozasertib; first compound 1 µM) | relative viability (RAF265 + Lapatinib; first compound 0.01 µM) | relative viability (RAF265 + Lapatinib; first compound 0.03162 µM) | relative viability (RAF265 + Lapatinib; first compound 0.1 µM) | relative viability (RAF265 + Lapatinib; first compound 0.3162 µM) | relative viability (RAF265 + Lapatinib; first compound 1 µM) | relative viability (Doramapimod + Pemetrexed; first compound 0.02 µM) | relative viability (Doramapimod + Pemetrexed; first compound 0.06325 µM) | relative viability (Doramapimod + Pemetrexed; first compound 0.2 µM) | relative viability (Doramapimod + Pemetrexed; first compound 0.6325 µM) | relative viability (Doramapimod + Pemetrexed; first compound 2 µM) |
| --- | --- | --- | --- | --- | --- | --- | --- | --- | --- | --- | --- | --- | --- | --- | --- | --- | --- | --- | --- | --- |
| ABC-1 | 0.308 | 0.321 | 0.278 | 0.284 | 0.303 | 0.17 | 0.202 | 0.178 | 0.158 | 0.24 | 1.08 | 1.01 | 1.2 | 1.25 | 0.886 |  |  |  |  |  |
| IA-LM | 0.77 |  | 0.805 | 0.593 | 0.548 |  |  |  |  |  | 0.652 | 0.578 | 0.759 | 0.653 | 0.52 |  |  |  |  |  |
| NCI-H322M | 1.3 | 1.32 | 1.14 | 0.55 | 0.258 | 0.479 | 0.462 | 0.306 | 0.327 | 0.223 | 0.579 | 0.529 | 0.481 | 0.342 | 0.258 | 0.666 | 0.653 | 0.64 | 0.644 | 0.654 |
| NCI-H1792 | 0.985 | 0.889 | 0.905 | 0.837 | 0.574 |  |  |  |  |  | 0.928 | 0.843 | 0.946 | 0.913 | 0.593 | 0.869 | 0.761 | 0.707 | 0.743 | 0.651 |
| LXF-289 | 0.996 | 0.988 | 0.969 | 0.763 | 0.796 | 0.217 | 0.172 | 0.174 | 0.205 | 0.108 | 0.942 | 0.953 | 0.858 | 0.785 | 0.743 | 0.959 | 0.914 | 0.83 | 0.863 | 0.971 |
| HCC-827 | 1.1 | 1.08 | 1.08 |  | 0.869 | 0.412 | 0.421 | 0.445 |  | 0.361 | 0.186 | 0.197 | 0.196 |  | 0.147 | 0.238 | 0.253 | 0.254 | 0.242 | 0.199 |
| NCI-H522 |  |  |  |  |  | 0.57 | 0.602 | 0.546 | 0.553 | 0.521 |  |  |  |  |  | 0.909 | 1.05 | 0.797 | 0.715 | 0.796 |
| SK-MES-1 |  |  |  |  |  | 0.853 | 0.603 | 0.399 | 0.348 | 0.275 | 0.468 | 0.449 | 0.366 | 0.349 | 0.269 | 0.895 | 0.96 | 0.986 | 0.942 | 0.795 |
| NCI-H1299 | 1.04 | 1.02 | 1.05 | 0.969 | 0.741 |  |  |  |  |  | 0.926 | 0.918 | 0.955 | 0.69 | 0.742 |  |  |  |  |  |
| NCI-H1563 | 0.994 | 0.836 | 0.851 | 0.69 | 0.803 |  |  |  |  |  | 1.01 | 0.885 | 0.992 | 0.815 | 0.737 | 0.83 | 0.768 | 0.811 | 1.13 | 0.787 |
| NCI-H1944 |  |  |  |  |  | 0.265 | 0.248 | 0.265 | 0.234 | 0.185 | 0.79 | 0.966 | 0.924 | 0.75 | 0.562 | 0.573 | 0.623 | 0.503 | 0.595 | 0.572 |
